The source of these data is patent publication EP2951180B1, “2,6,7,8 SUBSTITUTED PURINES AS HDM2 INHIBITORS” (Merck Sharp & Dohme Corp., priority 2013, dated 2014).

Where two headings read alike, the source gives them in different places.

In this test the target is T1, HDM2 (Homo sapiens, UniProt Q00987).
T1 construct: Thioredoxin (N); made in house; host or cells: E. coli strain BL21(DE3)Rosetta
The test can be described thus: HDM2 FRET assay (inhibition of binding of FITC labeled p53-pocket peptide to HDM2). To be noted: for IC50: read-out: FRET IC50. The method, boiled down: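 Signal is read as the 520/495 nm emission ratio and converted to percent inhibition; nonlinear sigmoidal regression yields IC50. The assay mixes HDM2 (0.5 nM), FITC-p53 peptide (3 nM) and Tb anti-His antibody (0.25 nM) at 0.1% DMSO.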

The mark [1] stands for this setting: 0.5 nM HDM2 (residues 17 to 125), 3nM peptide, two hour incubation at room temperature.

T1 sequence (Q00987 17-125): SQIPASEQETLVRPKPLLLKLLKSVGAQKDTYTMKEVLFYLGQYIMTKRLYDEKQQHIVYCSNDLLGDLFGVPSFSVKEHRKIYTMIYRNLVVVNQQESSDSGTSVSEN

`Cc1cccc(-c2nc3nc(C(=O)O)nc(N[C@H](C)C4CC4)c3n2Cc2ccc(Cl)c(F)c2)c1` [Example 6.17, 7-(4-chloro-3-fluorobenzyl)-6-{[(1R)-1-cyclopropylethyl]amino}-8-(3-methylphenyl)-7H-purine-2-carboxylic acid]: the IC50 (Table 6) is 25.8 nM.

`Cc1cccc(-c2nc3nc(C(=O)O)nc(N(C)CCC(C)C)c3n2Cc2ccc(C(F)(F)F)cc2)c1` [Example 6.77, 6-[methyl(3-methylbutyl)amino]-8-(3-methylphenyl)-7-[4-(trifluoromethyl)benzyl]-7H-purine-2-carboxylic acid]: under “read-out: inh. at 1000 nM (FRET)”, the inhibition at 1 µM was 36%. As for `C[C@H]1CC[C@H](Cn2c(N3CCOC[C@H]3c3ccccc3)nc3nc(-c4noc(=O)[nH]4)nc(Oc4ccc(Cl)cn4)c32)CC1` [Example 25.2, 3-{6-[(5-chloropyridin-2-yl)oxy]-7-[(trans-4-methylcyclohexyl)methyl]-8-[(3R)-3-phenylmorpholin-4-yl]-7H-purin-2-yl}-1,2,4-oxadiazol-5(4H)-one], under “Table 25”, the IC50 was 15.4 nM.

`C[C@@H](Nc1nc(-c2noc(=O)[nH]2)nc2nc(N3CCC[C@H]4CCCC[C@@H]43)n(C[C@H]3CC[C@H](C)CC3)c12)C1CCC1` [Example 11.60, 3-(6-{[(1R)-1-cyclobutylethyl]amino}-7-[(trans-4-methylcyclohexyl)methyl]-8-[(4aR,8aS)-octahydroquinolin-1(2H)-yl]-7H-purin-2-yl)-1,2,4-oxadiazol-5(4H)-one]: the IC50 (Table 11) amounted to 10.5 nM. As for `Cc1cccc(-c2nc3nc(C(=O)O)nc(NCc4ccccc4)c3n2Cc2ccc(C(F)(F)F)cc2)c1` [Example 6.29, 6-(benzylamino)-8-(3-methylphenyl)-7-[4-(trifluoromethyl)benzyl]-7H-purine-2-carboxylic acid], where the note is “Table 6”, the IC50 stood at 1770 nM.

As for `C[C@H]1OCCN(c2nc3nc(-c4noc(=O)[nH]4)nc(-c4cncc(Cl)c4)c3n2C[C@H]2CC[C@H](C)CC2)[C@@H]1c1ccccc1` [Example 16.135, 3-{6-(5-chloropyridin-3-yl)-7-[(trans-4-methylcyclohexyl)methyl]-8-[(2R,3R)-2-methyl-3-phenylmorpholin-4-yl]-7H-purin-2-yl}-1,2,4-oxadiazol-5(4H)-one], the IC50 under setting [1] came out at 0.504 nM. For the compound `C[C@@H]1CN[C@@H](C)CN1c1nc2nc(-c3noc(=O)[nH]3)nc(N[C@H](C)C3CCC3)c2n1C[C@H]1CC[C@H](C)CC1` [Example 17.21, 3-(6-{[(1R)-1-cyclobutylethyl]amino}-8-[(2R,5S)-2,5-dimethylpiperazin-1-yl]-7-[(trans-4-methylcyclohexyl)methyl]-7H-purin-2-yl)-1,2,4-oxadiazol-5(4H)-one], for the setting “Table 17.2”, the IC50 amounted to 20.1 nM. For the compound `CC(c1nc2nc(C(=O)O)nc(N[C@H](C)C3CCC3)c2n1Cc1ccc(C(F)(F)F)cc1)N(C)c1ccccc1` (stereo partly drawn) [Example 10.10, 6-(((R)-1-cyclobutylethyl)amino)-8-(1-(methyl(phenyl)amino)ethyl)-7-(4-(trifluoromethyl)benzyl)-7H-purine-2-carboxylic acid], the IC50 (Table 10) was 68.8 nM. Turning to `C[C@H]1CC[C@H](Cn2c(C(O)C3CCOCC3)nc3nc(-c4n[nH]c(=O)o4)nc(-c4cccc(Cl)c4)c32)CC1` (mixture of isomers) [Example 23.1, 5-{6-(3-chlorophenyl)-8-[hydroxy(tetrahydro-2H-pyran-4-yl)methyl]-7-[(trans-4-methylcyclohexyl)methyl] -7H-purin-2-yl}-1,3,4-oxadiazol-2(3H)-one], for the setting “Table 23”, the IC50 is 67.3 nM. On to `C[C@@H](Nc1nc(-c2n[nH]c(=O)o2)nc2nc(N3CCOC4CCCCC43)n(C[C@H]3CC[C@H](C)CC3)c12)C1CCC1` (single isomer, unassigned) [Example 11.125], for which, where the note is “Table 11”, the IC50 came out at 7.49 nM. `C[C@H]1CC[C@H](Cn2c(N3CCOC[C@H]3c3ccccc3)nc3nc(-c4noc(=O)[nH]4)nc(-c4cc(Cl)nc(Cl)c4)c32)CC1` [Example 16.107, 3-{6-(2,6-dichloropyridin-4-yl)-7-[(trans-4-methylcyclohexyl)methyl]-8-[(3R)-3-phenylmorpholin-4-yl]-7H-purin-2-yl}-1,2,4-oxadiazol-5(4H)-one]: the IC50 under setting [1] was determined as 1.66 nM. As to `CC(C)CN(C)c1nc2nc(C(=O)O)nc(N[C@H](C)C3CCC3)c2n1C[C@H]1CC[C@H](C)CC1` [Example 11.30, 6-{[(1R)-1-cyclobutylethyl]amino}-7-[(trans-4-methylcyclohexyl)methyl]-8-[methyl(2-methylpropyl)amino] -7H-purine-2-carboxylic acid], the IC50 (Table 11) stood at 1.65 nM.

Turning to `CC(=O)N1CCN(c2nc3nc(-c4noc(=O)[nH]4)nc(N[C@H](C)C4CCC4)c3n2C[C@H]2CC[C@H](C)CC2)[C@H](C)C1` [Example 17.9, 3-(8-((R)-4-acetyl-2-methylpiperazin-1-yl)-6-(((R)-1-cyclobutylethyl)amino)-7-((trans-4-methylcyclohexyl)methyl)-7H-purin-2-yl)-1,2,4-oxadiazol-5(4H)-one], the IC50 (Table 17.2) was 2.61 nM. For the compound `C[C@@H](Nc1nc(-c2noc(=O)[nH]2)nc2nc(C(O)C3CCCC3)n(C[C@H]3CC[C@H](C)CC3)c12)C1CCC1` (stereo partly drawn) [Example 22.41, 3-(6-{[(1R)-1-cyclobutylethyl]amino}-8-[cyclopentyl(hydroxy)methyl]-7-[(trans-4-methylcyclohexyl)methyl] -7H-purin-2-yl)-1,2,4-oxadiazol-5(2H)-one], the IC50 (Table 22) stood at 1.21 nM. With `CC(C)c1ccnc(-c2nc3nc(C(=O)O)nc(OC(C)C4CCC4)c3n2C[C@H]2CC[C@H](C)CC2)c1` (mixture of isomers) [Example 17.8, 6-(1-cyclobutylethoxy)-7-[(trans-4-methylcyclohexyl)methyl]-8-[4-(propan-2-yl)pyridin-2-yl]-7H-purine-2-carboxylic acid], the IC50 under setting [1] was 10.3 nM. As to `Cc1cccc(-c2nc3nc(C(=O)O)nc(N[C@H](C)C4CCC4)c3n2Cc2ccc(Br)cc2)c1` [Example 6.7, 7-(4-bromobenzyl)-6-{[(1R)-1-cyclobutylethyl]amino}-8-(3-methylphenyl)-7H-purine-2-carboxylic acid], under “Table 6”, the IC50 turned out to be 75.7 nM. In the case of `C[C@@H](Nc1nc(C(=O)O)nc2nc(N3CCOC(C)(C)C3)n(Cc3ccc(C(F)(F)F)cc3)c12)C1CCC1` [Example 9.18, 6-{[(1R)-1-cyclobutylethyl]amino}-8-(2,2-dimethylmorpholin-4-yl)-7-[4-(trifluoromethyl)benzyl]-7H-purine-2-carboxylic acid], for the setting “Table 9”, the IC50 is 32.7 nM. For the compound `CCC(c1ccccc1)N(C)c1nc2nc(-c3noc(=O)[nH]3)nc(N[C@H](C)C3CCC3)c2n1Cc1ccc(C(F)(F)F)c(F)c1` (stereo partly drawn) [Example 9.71, 3-(6-{[(1R)-1-cyclobutylethyl]amino}-7-[3-fluoro-4-(trifluoromethyl)benzyl]-8-[methyl(1-phenylpropyl)amino]-7H-purin-2-yl)-1,2,4-oxadiazol-5(4H)-one], the IC50 (Table 9) stood at 18.1 nM. For `CC(C)S(=O)(=O)c1nc(N[C@H](C)C2CCC2)c2c(n1)nc(N1CCOC[C@H]1c1ccccc1)n2C[C@H]1CC[C@H](C)CC1` [Example 14.6, N-[(1R)-1-cyclobutylethyl]-7-[(trans-4-methylcyclohexyl)methyl]-2-[(1-methylethyl)sulfonyl]-8-[(3R)-3-phenylmorpholin-4-yl]-7H-purin-6-amine], under setting [1], the IC50 came out at 21.1 nM. The same measure, in the same setting: then `CC[C@@H]1[C@@H](C)OCCN1c1nc2nc(-c3noc(=O)[nH]3)nc(-c3cncc(Cl)c3)c2n1C[C@H]1CC[C@H](C)CC1` [Example 16.152, 3-{6-(5-chloropyridin-3-yl)-8-[(2R,3R)-3-ethyl-2-methylmorpholin-4-yl]-7-[(trans-4-methylcyclohexyl)methyl]-7H-purin-2-yl}-1,2,4-oxadiazol-5(4H)-one], with 5.68 nM. With `CC(O)c1nc2nc(C(=O)O)nc(N[C@H](C)C3CCC3)c2n1Cc1ccc(C(F)(F)F)cc1` (stereo partly drawn) [Example 10.7, 6-(((R)-1-Cyclobutylethyl)amino)-8-(1-hydroxyethyl)-7-(4-(trifluoromethyl)benzyl)-7H-purine-2-carboxylic acid], the IC50 (Table 10) amounted to 140 nM. Consider `C[C@@H](Nc1nc(-c2noc(=O)[nH]2)nc2nc(C(C)(F)c3ccccc3F)n(C[C@H]3CC[C@H](C)CC3)c12)C1CCC1` (single isomer, unassigned) [Example 22.62], for which the IC50 (Table 22) amounted to 0.563 nM. For the compound `C[C@H](Nc1nc2nc(-c3n[nH]c(=O)o3)nc(-c3cccc(Cl)c3)c2n1C[C@H]1CC[C@H](C)CC1)c1cccc(F)c1` [Example 16.55, 5-{6-(3-chlorophenyl)-8-{[(1S)-1-(3-fluorophenyl)ethyl]amino}-7-[(trans-4-methylcyclohexyl)methyl]-7H-purin-2-yl}-1,3,4-oxadiazol-2(3H)-one], under setting [1], the IC50 is 5.04 nM. As for `C[C@@H](Nc1nc(-c2noc(=O)[nH]2)nc2nc(N3CCOC[C@H]3Cc3ccccc3)n(C[C@H]3CC[C@H](C)CC3)c12)C1CCC1` [Example 11.101, 3-{8-[(3R)-3-benzylmorpholin-4-yl]-6-{[(1R)-1-cyclobutylethyl]amino}-7-[(trans-4-methylcyclohexyl)methyl]-7H-purin-2-yl}-1,2,4-oxadiazol-5(4H)-one], the IC50 (Table 11) came to 16.2 nM.

Turning to `CC(C)c1ccnc(-c2nc3nc(C(=O)O)nc(N[C@H](C)C(F)(F)F)c3n2C[C@H]2CC[C@H](C)CC2)c1` [Example 15.22, 7-[(trans-4-methylcyclohexyl)methyl]-8-[4-(1-methylethyl)pyridin-2-yl]-6-{[(1R)-2,2,2-trifluoro-1-methylethyl]amino}-7H-purine-2-carboxylic acid], the IC50 under setting [1] came out at 17.9 nM.

What is called IC50 is the concentration that inhibits the measured activity by half.
